From US4447422A, “Penicillins and compositions containing them” (Beecham Group p.1.c., priority 1981, dated 1984)
≈ marks a conversion by molar mass, not a printed value. Counter-ions that a name gives are not always drawn. Like-named read-outs stand apart in the source and are kept apart here. Values belong to the molecule of their own block, whether it stands above or below them.

Key:
Assay in all cases: antibacterial activity (MIC)
Format in all cases: cell-based
β-Haemolytic Strep CN10 = conditions: Table 1
N catarrhalis 1502 = conditions: Table 1
Step faecalis I = conditions: Table 1
Staph aureus Oxford = test system: Staph aureus Oxford
E coli ESS = conditions: Table 1
E coli JT4 = conditions: Table 1
P mirabilis 889 = conditions: Table 1
Klebsiella aerogenes A = conditions: Table 1
Staph aureus Russell = conditions: Staphylococcus aureus, Table 1
P morganii = conditions: Table 1
B subtilis = conditions: Table 1
Ps aeruginosa Dalgleish = conditions: Table 1; Ps aeruginosa Dalgleish 10^-2
E coli JT425 = conditions: Table 1
P mirabilis C977 = conditions: Table 1
P rettgeri = conditions: Table 1
Enterobacter cloacae N1 = conditions: Table 1
E coli NCTC 10418 = test system: E coli NCTC 10418
Ps aeruginosa 10662 = conditions: Table 1
Serratia marcescens US32 = conditions: Table 1
[1] = Staphylococcus aureus, Table 1, Staph aureus Oxford, read-out: MIC
[2] = Table 2, gram positive organism Staph. aureus Oxford
[3] = Escherichia coli, NCTC10418, Table 2, gram negative organism E. coli NCTC 10418
[4] = Staphylococcus aureus, Table 2, gram positive organism Staph. aureus Oxford, read-out: MIC

SMILES: CC1(C)S[C@@H]2[C@H](NC(=O)[C@H](NC(=O)c3cnc(NCc4ccccc4)nc3O)c3ccccc3)C(=O)N2[C@H]1C(=O)O [Example 1, 6β-[D-2-(2-benzylamino-4-hydroxypyrimidine-5-carbonylamino)-2-phenyl]acetamido penicillanic acid]
- MIC (β-Haemolytic Strep CN10): < 0.02 µg/mL
- MIC (N catarrhalis 1502): < 0.02 µg/mL
- MIC (Step faecalis I): 5 µg/mL (≈ 8.67 µM)
- MIC (Staph aureus Oxford; [1]): 0.5 µg/mL (≈ 0.867 µM)
- MIC (Staph aureus Oxford; [2]): 0.5 µg/mL (≈ 0.867 µM)
- MIC (E coli ESS): < 0.02 µg/mL
- MIC (E coli JT4): > 100 µg/mL
- MIC (P mirabilis 889): > 100 µg/mL
- MIC (Klebsiella aerogenes A): 50 µg/mL (≈ 86.7 µM)
- MIC (Staph aureus Russell): 50 µg/mL (≈ 86.7 µM)
- MIC (P morganii): 50 µg/mL (≈ 86.7 µM)
- MIC (B subtilis): 2.5 µg/mL (≈ 4.34 µM)
- MIC (Ps aeruginosa Dalgleish): 50 µg/mL (≈ 86.7 µM)
- MIC (E coli JT425): 25 µg/mL (≈ 43.4 µM)
- MIC (P mirabilis C977): 2.5 µg/mL (≈ 4.34 µM)
- MIC (P rettgeri): 10 µg/mL (≈ 17.3 µM)
- MIC (Enterobacter cloacae N1): 10 µg/mL (≈ 17.3 µM)
- MIC (E coli NCTC 10418; [3]): 2.5 µg/mL (≈ 4.34 µM)
- MIC (E coli NCTC 10418; Table 1, E coli NCTC 10418): 2.5 µg/mL (≈ 4.34 µM)
- MIC (Ps aeruginosa 10662; Ps aeruginosa 10662): 5 µg/mL (≈ 8.67 µM)
- MIC (Ps aeruginosa 10662; Ps aeruginosa 10662 10^-2): 2.5 µg/mL (≈ 4.34 µM)
- MIC (Serratia marcescens US32): 10 µg/mL (≈ 17.3 µM)

SMILES: CCCCCNc1ncc(C(=O)N[C@@H](C(=O)N[C@@H]2C(=O)N3[C@@H]2SC(C)(C)[C@@H]3C(=O)O)c2ccccc2)c(O)n1 [Example 18, 6β-[D-2-(2-n-Pentylamino-4-hydroxypyrimidine-5-carbonylamino)-2-phenyl] acetamido penicillanic acid, disodium salt]
- MIC (Staph aureus Oxford; [4]): 1.25 µg/mL
- MIC (E coli NCTC 10418; [3]): 1.25 µg/mL

SMILES: CCCCNc1ncc(C(=O)N[C@@H](C(=O)N[C@@H]2C(=O)N3[C@@H]2SC(C)(C)[C@@H]3C(=O)O)c2ccccc2)c(O)n1 [Example 16, 6β-[D-2-(2-n-Butylamino-4-hydroxypyrimidine-5-carbonylamino)-2-phenyl] acetamido penicillanic acid, disodium salt]
- MIC (β-Haemolytic Strep CN10): 0.02 µg/mL
- MIC (N catarrhalis 1502): 0.02 µg/mL
- MIC (Step faecalis I): 5 µg/mL
- MIC (Staph aureus Oxford; [1]): 1.2 µg/mL
- MIC (Staph aureus Oxford; [2]): 1.2 µg/mL
- MIC (E coli ESS): 0.02 µg/mL
- MIC (E coli JT4): > 500 µg/mL
- MIC (P mirabilis 889): > 500 µg/mL
- MIC (Klebsiella aerogenes A): 12.5 µg/mL
- MIC (Staph aureus Russell): 125 µg/mL
- MIC (P morganii): 5 µg/mL
- MIC (B subtilis): 1.2 µg/mL
- MIC (Ps aeruginosa Dalgleish): 125 µg/mL
- MIC (E coli JT425): 50 µg/mL
- MIC (P mirabilis C977): 2.5 µg/mL
- MIC (P rettgeri): 5 µg/mL
- MIC (Enterobacter cloacae N1): 5 µg/mL
- MIC (E coli NCTC 10418; [3]): 1.2 µg/mL
- MIC (E coli NCTC 10418; Table 1, E coli NCTC 10418): 1.5 µg/mL
- MIC (Ps aeruginosa 10662; Ps aeruginosa 10662): 5 µg/mL
- MIC (Serratia marcescens US32): 12.5 µg/mL

SMILES: CCCCCCCCNc1ncc(C(=O)N[C@@H](C(=O)N[C@@H]2C(=O)N3[C@@H]2SC(C)(C)[C@@H]3C(=O)O)c2ccccc2)c(O)n1 [Example 20, 6β-[D-2-(2-n-Octylamino-4-hydroxypyrimidine-5-carbonylamino)-2-phenyl] acetamido penicillanic acid, disodium salt]
- MIC (Staph aureus Oxford; [4]): 2.5 µg/mL
- MIC (E coli NCTC 10418; [3]): 10 µg/mL

SMILES: CCSCCNc1ncc(C(=O)N[C@@H](C(=O)N[C@@H]2C(=O)N3[C@@H]2SC(C)(C)[C@@H]3C(=O)O)c2ccccc2)c(O)n1 [Example 2, 6β-[D-2-(2-[2-Ethylthioethyl-1-amino]-4-hydroxypyrimidine-5-carbonylamino)-2-phenyl]acetamido penicillanic acid]
- MIC (β-Haemolytic Strep CN10): < 0.01 µg/mL
- MIC (N catarrhalis 1502): < 0.01 µg/mL
- MIC (Step faecalis I): 5 µg/mL (≈ 8.7 µM)
- MIC (Staph aureus Oxford; [1]): 1.25 µg/mL (≈ 2.18 µM)
- MIC (Staph aureus Oxford; [2]): 1.25 µg/mL (≈ 2.18 µM)
- MIC (E coli ESS): < 0.01 µg/mL
- MIC (E coli JT4): > 500 µg/mL
- MIC (P mirabilis 889): > 500 µg/mL
- MIC (Klebsiella aerogenes A): 12.5 µg/mL (≈ 21.8 µM)
- MIC (Staph aureus Russell): 125 µg/mL (≈ 218 µM)
- MIC (P morganii): 25 µg/mL (≈ 43.5 µM)
- MIC (B subtilis): 1.25 µg/mL (≈ 2.18 µM)
- MIC (Ps aeruginosa Dalgleish): 125 µg/mL (≈ 218 µM)
- MIC (E coli JT425): 50 µg/mL (≈ 87 µM)
- MIC (P mirabilis C977): 2.5 µg/mL (≈ 4.35 µM)
- MIC (P rettgeri): 12.5 µg/mL (≈ 21.8 µM)
- MIC (Enterobacter cloacae N1): 12.5 µg/mL (≈ 21.8 µM)
- MIC (E coli NCTC 10418; [3]): 2.5 µg/mL (≈ 4.35 µM)
- MIC (E coli NCTC 10418; Table 1, E coli NCTC 10418): 2.5 µg/mL (≈ 4.35 µM)
- MIC (Ps aeruginosa 10662; Ps aeruginosa 10662): 5 µg/mL (≈ 8.7 µM)
- MIC (Ps aeruginosa 10662; Ps aeruginosa 10662 10^-2): 2.5 µg/mL (≈ 4.35 µM)
- MIC (Serratia marcescens US32): 12.5 µg/mL (≈ 21.8 µM)

SMILES: CCCCCCNc1ncc(C(=O)N[C@@H](C(=O)N[C@@H]2C(=O)N3[C@@H]2SC(C)(C)[C@@H]3C(=O)O)c2ccccc2)c(O)n1 [Example 19, 6β-[D-2-(2-n-hexylamino-4-hydroxypyrimidine-5-carbonylamino)-2-phenyl] acetamido penicillanic acid, disodium salt]
- MIC (Staph aureus Oxford; [4]): 0.5 µg/mL
- MIC (E coli NCTC 10418; [3]): 1.2 µg/mL

SMILES: CC1(C)S[C@@H]2[C@H](NC(=O)[C@H](NC(=O)c3cnc(NC(=O)c4ccccc4)nc3O)c3ccccc3)C(=O)N2[C@H]1C(=O)O [Example 23, 6β-[D-2-(2-benzoylamino-4-hydroxypyrimidine-5-carbonylamino)-2-phenyl] acetamido penicillanic acid, disodium salt]
- MIC (Staph aureus Oxford; [4]): 0.5 µg/mL
- MIC (E coli NCTC 10418; [3]): 5 µg/mL

More lines, in order of falling MIC (E coli NCTC 10418; [3]), values ahead:

- MIC (Staph aureus Oxford; [4]): 2.5 µg/mL
- MIC (E coli NCTC 10418; [3]): 25 µg/mL
SMILES: CNc1ncc(C(=O)N[C@@H](C(=O)N[C@@H]2C(=O)N3[C@@H]2SC(C)(C)[C@@H]3C(=O)O)c2ccccc2)c(O)n1 [Example 11, 6β-D-2-(2-Methylamino-4-hydroxypyrimidine-5-carbonylamino)-2-phenyl] acetamido penicillanic acid, disodium salt]

- MIC (Staph aureus Oxford; [4]): 2.5 µg/mL
- MIC (E coli NCTC 10418; [3]): 10 µg/mL
SMILES: CC1(C)S[C@@H]2[C@H](NC(=O)[C@H](NC(=O)c3cnc(NCc4ccc(S(N)(=O)=O)cc4)nc3O)c3ccccc3)C(=O)N2[C@H]1C(=O)O [Example 7, 6β-[D-2-(2-[4-sulphonamidobenzylamino]-4-hydroxypyrimidine-5-carbonylamino)-2-phenyl]acetamido penicillanic acid, disodium salt]

- MIC (Staph aureus Oxford; [4]): 1.2 µg/mL
- MIC (E coli NCTC 10418; [3]): 5 µg/mL
SMILES: COCCCNc1ncc(C(=O)N[C@@H](C(=O)N[C@@H]2C(=O)N3[C@@H]2SC(C)(C)[C@@H]3C(=O)O)c2ccccc2)c(O)n1 [Example 12, 6β-[D-2-(2-[3-methoxypropyl-1-amino]-4-hydroxypyrimidine-5-carbonylamino)-2-phenyl] acetamido penicillanic acid, disodium salt]

- MIC (Staph aureus Oxford; [4]): 1.2 µg/mL
- MIC (E coli NCTC 10418; [3]): 5 µg/mL
SMILES: CC1(C)S[C@@H]2[C@H](NC(=O)[C@H](NC(=O)c3cnc(NCc4ccco4)nc3O)c3ccccc3)C(=O)N2[C@H]1C(=O)O [Example 10, 6β-[D-2-(2-Furfurylamino-4-hydroxypyrimidine-5-carbonylamino)-2-phenyl] acetamido penicillanic acid, disodium salt]

- MIC (Staph aureus Oxford; [4]): 1.2 µg/mL (≈ 1.98 µM)
- MIC (E coli NCTC 10418; [3]): 5 µg/mL (≈ 8.27 µM)
SMILES: CC1(C)S[C@@H]2[C@H](NC(=O)[C@H](NC(=O)c3cnc(NCCCc4ccccc4)nc3O)c3ccccc3)C(=O)N2[C@H]1C(=O)O [Example 3, 6β-[D-2-(2-(3-phenylpropyl-1-amino)-4-hydroxypyrimidine-5-carbonylamino)-2-phenyl] acetamido penicillanic acid]

- MIC (Staph aureus Oxford; [4]): 0.5 µg/mL
- MIC (E coli NCTC 10418; [3]): 5 µg/mL
SMILES: CCCC(=O)Nc1ncc(C(=O)N[C@@H](C(=O)N[C@@H]2C(=O)N3[C@@H]2SC(C)(C)[C@@H]3C(=O)O)c2ccccc2)c(O)n1 [Example 22, 6β-[D-2-(2-n-butyrylamino-4-hydroxypyrimidine-5-carbonylamino)-2-phenyl] acetamido penicillanic acid, disodium salt]

- MIC (Staph aureus Oxford; [4]): 1.2 µg/mL
- MIC (E coli NCTC 10418; [3]): 2.5 µg/mL
SMILES: CCSCCNc1ncc(C(=O)N[C@@H](C(=O)N[C@@H]2C(=O)N3[C@@H]2SC(C)(C)[C@@H]3C(=O)O)c2ccc(O)cc2)c(O)n1 [Example 14, 6β-[D-2-(2-[2-(ethylthio)ethyl-1-amino]-4-hydroxypyrimidine-5-carbonylamino)-2-(4-hydroxyphenyl)]acetamidopenicillanic acid, disodium salt]

- MIC (Staph aureus Oxford; [4]): 0.2 µg/mL
- MIC (E coli NCTC 10418; [3]): 2.5 µg/mL
SMILES: CC1(C)S[C@@H]2[C@H](NC(=O)[C@H](NC(=O)c3cnc(NC(=O)OCc4ccccc4)nc3O)c3ccccc3)C(=O)N2[C@H]1C(=O)O [Example 25, 6β-D-2-(2-benzyloxycarbonylamino-4-hydroxypyrimidine-5-carbonylamino-2-phenyl] acetamido penicillanic acid, disodium salt]
